Structures are written as SMILES. Where a SMILES comes first, the peptide text is derived from it. Bridges are numbered along the chain shown (N, C = ends).

This data set in a line: Determination of the protein binding (90% serum, 30 kDa filter, HPLC). The data set is classed as in vitro ADME. To be noted: serum. On the procedure: Protein binding assays were performed as follows. The purified peptides were mixed with 90% serum and centrifuged through a 30 kDa filter. The ultra-filtrate and the non filtrated serum samples were quantified by HPLC measurements and the protein binding was subsequently calculated.
`CC(C)[C@@H]1NC(=O)[C@H](CCCNC(=N)N)NC(=O)[C@H](Cc2c[nH]c3ccccc23)NC(=O)[C@@H](NC(=O)[C@H](Cc2ccccc2)NC(=O)CN)CSSC[C@@H](C(=O)N[C@@H](CC(N)=O)C(=O)O)NC(=O)[C@H](CCCNC(=N)N)NC(=O)[C@H](CCCNC(=N)N)NC(=O)[C@H](Cc2ccc(O)cc2)NC(=O)[C@@H]2CSSC[C@H](NC1=O)C(=O)N[C@@H](Cc1c[nH]cn1)C(=O)N[C@@H](Cc1ccc(O)cc1)C(=O)N[C@@H](CCCNC(=N)N)C(=O)N[C@@H](CC(N)=O)C(=O)N[C@@H](CO)C(=O)N[C@@H](C(C)C)C(=O)N[C@@H](CCCNC(=N)N)C(=O)N[C@@H](C(C)C)C(=O)N2` [compound 327] (H-GFCWRVCHYRNSVRVCYRRCN-OH; disulfide 3-20, 7-16 (inferred); N-terminus and C-terminus assumed) showed a fraction unbound of 0.02. For `CC(C)[C@@H]1NC(=O)CNC(=O)[C@H](CC(N)=O)NC(=O)[C@H](CCCNC(=N)N)NC(=O)[C@H](CCCCN)NC(=O)[C@H](C(C)C)NC(=O)[C@@H]2CSSC[C@H](NC(=O)[C@H](CCCCN)NC(=O)[C@H](CCCNC(=N)N)NC1=O)C(=O)N[C@@H](Cc1ccc(O)cc1)C(=O)N[C@@H](CCCNC(=N)N)C(=O)N[C@@H](CCCNC(=N)N)C(=O)N[C@H](C(=O)N[C@@H](CC(N)=O)C(=O)O)CSSC[C@H](NC(=O)[C@H](Cc1ccccc1)NC(=O)CN)C(=O)N[C@@H]([C@@H](C)O)C(=O)N[C@@H](Cc1ccc(O)cc1)C(=O)N[C@@H](C(C)C)C(=O)N2` [compound 195] (H-GFCTYVCVKRNGVRKCYRRCN-OH; disulfide 3-20, 7-16 (inferred); N-terminus and C-terminus assumed) the value was 0.05. In turn, `CC(C)[C@@H]1NC(=O)[C@H](CCCNC(=N)N)NC(=O)[C@H](Cc2ccc(O)cc2)NC(=O)CNC(=O)[C@H](CC(N)=O)NC(=O)[C@H](CCCNC(=N)N)NC(=O)[C@H](Cc2ccc(O)cc2)NC(=O)[C@H](C(C)C)NC(=O)[C@@H]2CSSC[C@H](NC1=O)C(=O)N[C@@H](Cc1c[nH]cn1)C(=O)N[C@@H](CCCNC(=N)N)C(=O)N[C@@H](CCCNC(=N)N)C(=O)N[C@H](C(=O)N[C@@H](CC(N)=O)C(=O)O)CSSC[C@H](NC(=O)[C@H](Cc1ccccc1)NC(=O)CN)C(=O)N[C@@H](Cc1c[nH]c3ccccc13)C(=O)N[C@@H](CC(N)=O)C(=O)N[C@@H](C(C)C)C(=O)N2` [compound 242] (H-GFCWNVCVYRNGYRVCHRRCN-OH; disulfide 3-20, 7-16 (inferred); N-terminus and C-terminus assumed) had a fraction unbound of 0.17. Turning to `CC(C)[C@@H]1NC(=O)CNC(=O)[C@H](CC(N)=O)NC(=O)[C@H](CCCNC(=N)N)NC(=O)[C@H](CCCNC(=N)N)NC(=O)[C@H](C)NC(=O)[C@@H]2CSSC[C@H](NC(=O)[C@H](C(C)C)NC(=O)[C@H](CCCNC(=N)N)NC1=O)C(=O)N[C@@H](Cc1ccc(O)cc1)C(=O)N[C@@H](CCCNC(=N)N)C(=O)N[C@@H](CCCNC(=N)N)C(=O)N[C@H](C(=O)N[C@@H](CC(N)=O)C(=O)O)CSSC[C@H](NC(=O)[C@H](Cc1ccccc1)NC(=O)CN)C(=O)N[C@@H](Cc1c[nH]c3ccccc13)C(=O)N[C@@H](Cc1c[nH]cn1)C(=O)N[C@@H](C(C)C)C(=O)N2` [compound 218] (H-GFCWHVCARRNGVRVCYRRCN-OH; disulfide 3-20, 7-16 (inferred); N-terminus and C-terminus assumed), the fraction unbound was found to be 0.01. Turning to `CC(C)C[C@@H]1NC(=O)CNC(=O)[C@H](CC(N)=O)NC(=O)[C@H](CCCNC(=N)N)NC(=O)[C@H](CO)NC(=O)[C@H](C)NC(=O)[C@@H]2CSSC[C@H](NC(=O)[C@H](C(C)C)NC(=O)[C@H](CCCNC(=N)N)NC1=O)C(=O)N[C@@H](Cc1ccc(O)cc1)C(=O)N[C@@H](CCCNC(=N)N)C(=O)N[C@@H](CCCNC(=N)N)C(=O)N[C@H](C(=O)N[C@@H](CC(N)=O)C(=O)O)CSSC[C@H](NC(=O)[C@H](Cc1ccccc1)NC(=O)CN)C(=O)N[C@@H](Cc1c[nH]c3ccccc13)C(=O)N[C@@H](CCCNC(=N)N)C(=O)N[C@@H](C(C)C)C(=O)N2` [compound 435] (H-GFCWRVCASRNGLRVCYRRCN-OH; disulfide 3-20, 7-16 (inferred); N-terminus and C-terminus assumed), the fraction unbound was 0.15. In turn, `CC(C)[C@@H]1NC(=O)CNC(=O)[C@H](CC(N)=O)NC(=O)[C@H](CCCNC(=N)N)NC(=O)[C@H](Cc2ccc(O)cc2)NC(=O)[C@H](C(C)C)NC(=O)[C@@H]2CSSC[C@H](NC(=O)[C@H](C(C)C)NC(=O)[C@H](CCCNC(=N)N)NC1=O)C(=O)N[C@@H](Cc1ccc(O)cc1)C(=O)N[C@@H](CCCNC(=N)N)C(=O)N[C@@H](CCCNC(=N)N)C(=O)N[C@H](C(=O)N[C@@H](CC(N)=O)C(=O)O)CSSC[C@H](NC(=O)[C@H](Cc1ccccc1)NC(=O)CN)C(=O)NCC(=O)N[C@@H](Cc1c[nH]cn1)C(=O)N[C@@H](C(C)C)C(=O)N2` [compound 60] (H-GFCGHVCVYRNGVRVCYRRCN-OH; disulfide 3-20, 7-16 (inferred); N-terminus and C-terminus assumed) gave a fraction unbound of 0.36.

`CC[C@H](C)[C@@H]1NC(=O)[C@H](CCCNC(=N)N)NC(=O)[C@H](C(C)C)NC(=O)CNC(=O)[C@H](CC(N)=O)NC(=O)[C@H](CCCNC(=N)N)NC(=O)[C@H](Cc2ccc(O)cc2)NC(=O)[C@H](C(C)C)NC(=O)[C@@H]2CSSC[C@H](NC1=O)C(=O)N[C@@H](Cc1c[nH]cn1)C(=O)N[C@@H](CCCNC(=N)N)C(=O)N[C@@H](CCCNC(=N)N)C(=O)N[C@H](C(=O)N[C@@H](CC(N)=O)C(=O)O)CSSC[C@H](NC(=O)[C@H](Cc1ccccc1)NC(=O)CN)C(=O)N[C@@H](Cc1c[nH]c3ccccc13)C(=O)N[C@@H](CC(N)=O)C(=O)N[C@@H](C(C)C)C(=O)N2` [compound 248] (H-GFCWNVCVYRNGVRICHRRCN-OH; disulfide 3-20, 7-16 (inferred); N-terminus and C-terminus assumed) gave a fraction unbound of 0.42. Turning to `CC(C)[C@@H]1NC(=O)CNC(=O)[C@H](CC(N)=O)NC(=O)[C@H](CCCNC(=N)N)NC(=O)[C@H](Cc2ccc(O)cc2)NC(=O)[C@H](C(C)C)NC(=O)[C@@H]2CSSC[C@H](NC(=O)[C@H](C(C)C)NC(=O)[C@H](CCCNC(=N)N)NC1=O)C(=O)N[C@@H](Cc1c[nH]cn1)C(=O)N[C@@H](CCCNC(=N)N)C(=O)N[C@@H](CCCNC(=N)N)C(=O)N[C@H](C(=O)N[C@@H](CC(N)=O)C(=O)O)CSSC[C@H](NC(=O)[C@H](Cc1ccccc1)NC(=O)[C@@H](N)CCCCN)C(=O)N[C@@H](Cc1c[nH]c3ccccc13)C(=O)N[C@@H](CC(N)=O)C(=O)N[C@@H](C(C)C)C(=O)N2` [compound 100] (H-KFCWNVCVYRNGVRVCHRRCN-OH; disulfide 3-20, 7-16 (inferred); N-terminus and C-terminus assumed), the fraction unbound was 0.22. Molecule `CC(C)[C@@H]1NC(=O)CNC(=O)[C@H](CC(N)=O)NC(=O)[C@H](CCCNC(=N)N)NC(=O)[C@H](Cc2ccc(O)cc2)NC(=O)[C@H](C(C)C)NC(=O)[C@@H]2CSSC[C@H](NC(=O)[C@H](C(C)C)NC(=O)[C@H](CCCNC(=N)N)NC1=O)C(=O)N[C@@H](CCCNC(=N)N)C(=O)N[C@@H](CCCNC(=N)N)C(=O)N[C@@H](CCCNC(=N)N)C(=O)N[C@H](C(=O)N[C@@H](CC(N)=O)C(=O)O)CSSC[C@H](NC(=O)[C@H](Cc1ccccc1)NC(=O)CN)C(=O)N[C@@H](Cc1ccccc1)C(=O)N[C@@H](Cc1ccc(O)cc1)C(=O)N[C@@H](C(C)C)C(=O)N2` [compound 56] (H-GFCFYVCVYRNGVRVCRRRCN-OH; disulfide 3-20, 7-16 (inferred); N-terminus and C-terminus assumed) showed a fraction unbound of 0.06.

For the origin of these results see US20160158317A1, “Antimicrobial Peptide Variants and Polynucleotides Encoding Same” (Adenium Biotech A/S, priority 2010, published 2016).
